The values below come from a melting point compilation (Tetko et al.; mined from patent text by program, amines drawn as free bases though some values may be those of a salt).

Starred links: 1 amine or outer side, 2 acyl side, 3 side chain; linkers in the order of their positions; H or OH if unused. Residues, ends and D or L forms follow the SMILES beside them. *: point of attachment. Glutaryl = O=C(CCCC(=O)[*:2])[*:1]; NHPr = CCCN*

As usually defined, the melting point is the temperature, or range, at which the solid turns liquid. In the case of `C=CCN(CC=C)Cc1nc(-c2ncn3c2[C@@H]2CCN2C(=O)c2c-3ccc(F)c2Cl)no1`, the melting point was 103 to 104 °C. The result for `CON=C(C#N)C(=O)NC(=O)NCCCCCC(=O)OC` reads 91 °C; that for `Cc1cc(Cl)ccc1OCc1ccccc1C(O)c1nccn1C` (stereo not drawn), 159 to 160 °C; that for `O=CCCNC(=O)c1cc(Br)c(Br)[nH]1`, 160 to 163 °C.

As to `COc1c(Cl)cc(C(=O)O)c2cccc(S(=O)(=O)N(C)C)c12`, the melting point is 127 to 137 °C. Molecule `CCOC(=O)C(N=Nc1sc(C)c(C)c1C(=O)c1ccccc1)NC(=O)CCl` (stereo not drawn) gave a melting point of 123 to 125 °C. The result for `CC(C)(C)OC(=O)N1CCC2(CC1)C(=O)N(CC(=O)O)CN2c1ccccc1` reads 200 to 201 °C. For the molecule `Oc1ccc(-n2c(-c3ccccc3)cc3c2CCCC3)cc1`, the melting point lay within 181 to 182 °C. Then `CC=CCOc1cc(OC)cc(C(=O)OC)c1`, with 140 to 141 °C; and `CC(=O)CCCn1c(C)nc2c(N)nc3ccccc3c21`, with 194 to 196 °C; and `O=c1[nH]c(CO)nc2nc(O)cnc12`, with above 300 °C. The result for `COc1cc(C=O)nnc1OC` reads 179 to 181 °C; that for `COc1ccc(Cn2cnc3c(Cl)ncnc32)cc1OC`, 159 to 163 °C. The result for `O=S(=O)(Nc1onc(-c2ccccc2)c1Br)c1ccccc1` reads 113 to 115 °C; that for `CC(=O)c1cccc(NC(=O)c2ccc3c(c2)CC(COCc2ccccc2)O3)c1O` (stereo not drawn), 103 to 105 °C; that for `COc1ccc2c(c1)c1c3c(c(-c4c(Cl)cccc4Cl)cc1n2CCC(=O)O)C(=O)NC3=O`, 203 to 209 °C.

As for `COc1cc(-c2cc(O)n(C)n2)cc([N+](=O)[O-])c1OC`, the melting point is 200 to 202 °C. In turn, `CCOC(=O)C1CCc2c(c(C)nn2C)C1=O` (stereo not drawn) displayed a melting point of 76.5 to 79 °C. Then `Cc1c(F)c(Oc2ccc(F)c(F)c2)nc(Oc2cc(C(F)(F)F)nn2C)c1F`, with 93 °C; and `O=P1(C2CCCC2)c2ccccc2CN1c1ccccc1` (stereo not drawn), with 123 to 125 °C. With `O=C(NCCN1CCCCC1)N1CCN(c2ccccc2)CC1`, the melting point lay within 64 to 67 °C.

Consider `O=C1N=C(N2CCCC2)SC1=Cc1ccc(-c2cc(F)c(O)c(C34CC5CC(CC(C5)C3)C4)c2)s1`, for which the melting point is 312 to 315 °C. Then `Cc1cccc(C(=O)Nc2c[nH]nc2C(=O)NCCC(=O)O)n1`, with 246 to 247 °C; and `c1ccc(COc2cccc3sncc23)cc1`, with 47 to 49 °C; and `CCCNC(=O)C1CCCN1C(=O)C(C)NC(=O)C(C)NC(=O)CCCC(=O)O` (stereo not drawn) (Glutaryl-Ala-Ala-Pro-NHPr; configuration not given here), with 131 to 134 °C. Then `CCCNc1nc(-c2ccc(OC)c(OC)c2)nc2sc(C#N)c(C)c12`, with 179 to 181 °C; and `Cc1nc2c(c3c1[nH]c1cccc(F)c13)C(=O)CC(C(C)C)C2` (stereo not drawn), with 213 to 215 °C; and `COc1cccc(Oc2cccc(Oc3ccc4c(c3)OCO4)c2C(=O)O)c1`, with 146 to 148 °C. Then `CCN(CC)C(=O)CCCC1CCN(Cc2cnc3c(C)c(NC(=O)c4ccc(-c5ccc(F)cc5)cc4)ccc3c2)CC1`, with 145 to 146 °C. The molecule `COc1cc(Nc2c(C#N)cnc3cc4cc(OC)c(OCCCl)cc4cc23)c(Cl)cc1F` registered a melting point of 193 to 204 °C. Molecule `Cc1c(C(=O)O)cnn1-c1ccc(OC(F)(F)F)cc1` gave a melting point of 176 to 178 °C. Molecule `O=C1c2ccccc2C(=O)N1CC(=O)N1c2ccccc2N(CCCc2ccccc2)C(=O)[C@H]2CCC[C@H]21` (relative stereo) came in with a melting point of 192 to 193 °C.

`O=C(c1cccs1)c1cnn2c(-c3cccc(NC(=O)C4CC4)c3)ccnc12` registered a melting point of 191 to 192 °C. `C=C1c2ccc(OC)cc2CC(=NO)c2ccccc21` displayed a melting point of 125 to 127 °C.

With `CCCc1nnc(Cc2ccc(NC(=O)/C=C/c3cnn(C)c3-c3ccc(F)cc3)cc2)o1`, the melting point is 154 to 155 °C. For `CC(C)(C)OC(=O)Cn1c(-c2ccccn2)nc2cccnc21`, the melting point lay within 124 to 126 °C.

The molecule `Cc1ccc(C(O)(Cc2nnnn2C)c2ccc(C)cc2C)c(C)c1` had a melting point of 175 to 177 °C. The result for `Cc1ccc2nc(CO)cc(Cl)c2c1` reads 147 to 148 °C. Consider `CCCCCCN(Cc1ccccc1)c1c(N[C@@H](Cc2ccccc2)C(=O)O)c(=O)c1=O`, for which the melting point lay within 61 to 65 °C. Then `COC(=O)C(=CN(C)C)c1cc(F)cc(F)c1`, with 97 °C; and `CCOC(=O)CC1(S(N)(=O)=O)c2ccccc2-c2ccccc21`, with 167 to 170 °C. The result for `CCCN1C(=O)COc2cc(F)c(N=c3sc(=S)n4n3CCCC4)cc21` reads 112 to 114 °C; that for `Cc1ccc(C(=O)C2=C(O)C(=O)N(c3ccc(C)nn3)C2c2ccc(OCCN(C)C)cc2)cc1` (stereo not drawn), 263 to 266 °C; that for `O=C(CC1CCCC1)Nc1ccc2c(c1)C(=O)CCC2`, 117 to 118 °C. The result for `CC1(C)Oc2ccc([N+](=O)[O-])cc2[C@@H](O)[C@@H]1Br` (relative stereo) reads 114 to 116 °C; that for `CC(=O)OC1NC(=O)C2=C1CN=C(c1ccccc1Cl)c1cc(Cl)ccc12` (stereo not drawn), 172 to 174 °C.

In turn, `COc1ccc(C2Sc3ccccc3NC(=O)C2CO)cc1` (stereo not drawn) showed a melting point of 217 °C. The result for `COc1cc2ncc(C#N)c(Nc3ccc(F)c(Cl)c3)c2cc1NC(=O)C=CCN(CC(C)O)CC(C)O` (stereo not drawn) reads 122 to 125 °C; that for `O=S(=O)(NCC(O)(c1ccccc1)c1ccc(OCc2ccccc2)cc1)c1ccccc1` (stereo not drawn), 148 to 149 °C. The result for `O=C1N(CCO)c2ccccc2C(c2ccccc2)N1C1CCN(Cc2cccc(CO)c2)CC1` (stereo not drawn) reads 185 to 187 °C; that for `CC(=O)OC1C=C(C)C(=O)CC(C)(C)C1OC(=O)c1ccc(Cl)cc1` (stereo not drawn), 86 to 87 °C; that for `O=C(CCc1ccccc1)N[C@H](Cc1ccc(C(F)(F)F)cc1)[C@@H](O)c1cccc(F)c1` (racemic), 151 to 152 °C. Then `C[C@@H](n1ccnc1)C(O)(c1ccc(Cl)cc1)c1ccc(Cl)cc1`, with 159 to 161 °C. Regarding `O=C(Nc1cccc(C(F)(F)F)c1)Nc1ccc(OCc2ccccc2)cc1O`, the melting point was 184 to 185 °C. Molecule `CCC(O)(CC)[C@H](Nc1nnc(-c2c(OS(=O)(=O)C(F)(F)F)ccc3ccccc23)c2ccccc12)c1ccccc1` had a melting point of 117 to 119 °C. Then `COc1ccc(C)cc1NC(=O)Nc1ccc(N2CCN(C(=O)Nc3ccc(OCCO)cc3C)CC2)nc1`, with 189 to 190 °C; and `CC(=O)N1CC[C@H](Oc2ccc(C=Cc3cc4cc(C#N)ccc4o3)cc2O)C1`, with 191 to 193 °C. As to `C=C(c1ccccc1OC(C)c1ccccc1)n1ccnc1` (stereo not drawn), the melting point lay within 172 to 174 °C. The result for `Nc1nc2ccccc2n1-c1cccc(-n2c(N)nc3ccccc32)c1` reads 270 °C; that for `CCCCCCC/C=C/C(=O)Nc1ccccc1`, 54 to 55 °C; that for `C[C@@H]1CNc2c(cccc2[N+](=O)[O-])[C@H](C)N1` (relative stereo), 62 °C.

On to `N=C(NCc1cnc(Cl)s1)N[N+](=O)[O-]`, for which the melting point lay in the range of 160 to 162 °C. Turning to `CC1Oc2ccc(C(F)(F)F)cc2NC1=O` (stereo not drawn), the melting point was 142 to 144 °C. `CCOC(=O)COc1cccc(Br)c1CC(=O)O`: the melting point was in the range of 181 to 183 °C. In the case of `CC(C)CCCC(C)C1CCC2C3=C(CCC21C)C1(C)CCC(O)CC1CC3=O` (stereo not drawn), the melting point fell in the range of 115 to 117 °C. On to `O=[N+]([O-])c1ccc(-c2nnsc2-c2ccc([N+](=O)[O-])cc2)cc1`, for which the melting point lay in the range of 185 to 186 °C. On to `CCOc1cc(C(O)c2ccccn2)ccc1OCc1ccccc1` (stereo not drawn), for which the melting point is 109 to 110 °C. As for `O=C(Nc1cccc(S(=O)(=O)NCC(F)(F)F)c1)c1cnn2c(C(F)F)cc(-c3ccc(C(F)(F)F)cc3)nc12`, the melting point stood at 257 °C.

The molecule `CC(C)(C)OC(=O)N1CCN(c2ccc(Oc3cc(Cl)ccc3N)cc2)CC1` had a melting point of 95 to 96 °C. Then `CCOC(=O)Nc1c(C(=O)OC)sc2cc(OC)ccc12`, with 137 °C; and `CCC1CC2=CC(O)CCC2C2CCC3(C)C(O)CCC3C12` (stereo not drawn), with 93 to 95 °C; and `CCCC(=O)c1cnc2c(C(=O)OC)cccc2c1Nc1ccccc1C`, with 113 to 115 °C.

The molecule `COc1ccc(Cc2c[nH]c(=O)c3ccccc23)cn1` yielded a melting point of 191 °C. The molecule `CC1Cc2c(n(Cc3ccc(Cl)cc3)c3ccc(F)cc23)C(CC(=O)O)C1` (stereo not drawn) registered a melting point of 205 to 206 °C. Then `CC1(C)CCC(C)(C)c2c(O)ccc(O)c21`, with 114 °C; and `COC(=O)c1cccc(CBr)c1[N+](=O)[O-]`, with 91 to 95 °C; and `COc1ccc(C=C(C)C(=O)O)cc1F`, with 167 to 169 °C. The result for `CCc1c(OC)nc2nc(-c3nnc(C(F)(F)F)o3)cn2c1C` reads 210 to 211 °C.

`COc1c(Cl)cc(NC(=O)OCCCl)c(OC)c1NC(=O)OCCCl` came in with a melting point of 87 °C. The result for `COC1=C(c2csc(NC(=O)c3cc4ccccc4[nH]3)n2)C=CC(Cl)(OC)C1` (stereo not drawn) reads 293 °C. `CCOC(=O)NCC(O)c1cccc2c1CCN2C(=O)c1ccccc1` (stereo not drawn) registered a melting point of 143 °C.

In turn, `CCc1nc2c(-c3ccc(OC(F)(F)F)cc3Cl)ncnc2n1C(C1CC1)C1CC1` came in with a melting point of 119 to 120 °C. On to `COc1nc(C)nc(NC(=O)NS(=O)(=O)c2ccccc2C(=O)O)n1`, for which the melting point was in the range of 157 to 158 °C. On to `COc1cc2ncnc(N3CCc4ccc(C(C)C)cc43)c2cc1OC`, for which the melting point is 128 to 129 °C. Then `CCOC(=O)C(=O)NCC(=O)C(C)(C)C`, with 82 to 85 °C; and `CCn1c2c(c3ccccc31)C(=O)NCC2`, with 203 to 204 °C; and `CC(C)N(CCCC(=NNC(N)=S)c1ccccc1)C(=O)c1ccccc1`, with 107 to 109 °C. The result for `COc1nc2cc(Cl)c(Cl)c(-n3c(CN(C)C)nnc3-c3cccnc3)c2nc1OC` reads 192 to 194 °C.
